Legend:
Type in all cases: cell-based
[1] = tested on: HCT-116, NCI-H460, SUM149PT, MDA-MB-436 cells; test: Combination viability assay (CTG, Bliss synergy); settings: HRP (HCT-116, NCI-H460) and HRD (SUM149PT, MDA-MB-436) cells, 7 days
Method: (§1) For combination analysis, cells were seeded in 70 μl of media in 384-well plates pre-dosed with compounds (5-point dose–response matrix) with a D300e digital dispenser (Tecan). Cell proliferation was determined after 7 days using CTG. Analysis was performed with Genedata Screener (Compound Synergy Extension) to determine Synergy scores (Bliss model), using a formulation whereby the Blissexcess is a continuous value and values higher than 2 are usually considered synergistic, and values between 0 and 2 are usually considered additive.

DLD-1 WT cells = test: Combination viability assay (CTG, Bliss synergy); settings: 7 days
Method: as §1

DLD-1 BRCA2KO cells = test: Combination viability assay (CTG, Bliss synergy); settings: 7 days
Method: For combination analysis, cells were seeded in 70 μl of media in 384-well plates pre-dosed with compounds (5-point dose–response matrix) with a D300e digital dispenser (Tecan). Cell proliferation was determined after 7 days using CTG.

RD-ES cells = test: Combination viability assay (CTG, Bliss synergy); settings: 7 days
[2] = tested on: SUM149PT 53BP1KO and SHLD2KO cells; test: Combination viability assay (CTG, Bliss synergy); settings: SUM149PT with 53BP1 or SHLD2 genetically ablated, 7 days
Method: as §1

[3] = tested on: SUM149PT 53BP1KO and SHLD2KO cells; test: Cell viability assay (CTG), 7 days, PARP inhibitor resistant models; settings: less sensitive than parental
Method: Cells were seeded in 150 μl of media in 96-well plates or in 70 μl of media in 384-well plates pre-dosed with compounds (8–10 points dose response) with a D300e digital dispenser (Tecan) and incubated for 24 h at 37°C and 5% CO2. Cell proliferation at the end of the assay (7 days) was measured using CTG (Promega, G9243). CTG luminescence was normalized to vehicle treated control for each cell line, and data were fitted with a nonlinear regression curve (four parameters) to generate compound sensitivity curves and determine IC50 or EC50 (half maximal inhibitory/effective concentration) values as indicated.

## COc1ncnc(C2CC2)c1-c1ncc2cnn(Cc3ccc(-c4nc(C(F)(F)F)cn4C(C)C)cc3)c2n1 [KSQ-4279]
[1]
  Combination benefit with MSC778: particularly strong

## Cc1nc(C)c(Cn2c(=O)n(-c3ncns3)c3cc(S(=O)(=O)NC4(C)CC4)ccc32)s1 [PDD00017238]
DLD-1 WT cells
  Combination effect with MSC778: Synergistic
[1]
  Combination benefit with MSC778: particularly strong

## Cn1cncc1-c1c(F)cncc1NC(=O)c1c(N)nn2cc(F)cnc12 [Tuvusertib]
DLD-1 BRCA2KO cells
  Combination effect with MSC778: at best weakly additive

## NC(=O)c1cccc2cn(-c3ccc([C@@H]4CCCNC4)cc3)nc12 [niraparib]
RD-ES cells
  Combination effect with MSC778: combination benefit

## O=C(c1cc(Cc2n[nH]c(=O)c3ccccc23)ccc1F)N1CCN(C(=O)C2CC2)CC1 [olaparib]
[2]
  Combination effect with MSC778: synergized
RD-ES cells
  Combination effect with MSC778: combination benefit

## Cn1ncnc1[C@H]1c2n[nH]c(=O)c3cc(F)cc(c23)N[C@@H]1c1ccc(F)cc1 [talazoparib, reference compound]
[3]
  Change in sensitivity of SUM149PT 53BP1KO and SHLD2KO cells versus parental cells: ~20 fold
[2]
  Combination effect with MSC778: synergized

## C[C@]1(c2nc3c(C(N)=O)cccc3[nH]2)CCCN1 [veliparib]
RD-ES cells
  Combination effect with MSC778: combination benefit

## PDD00017273
DLD-1 WT cells
  Combination effect with MSC778: Synergistic
RD-ES cells
  Combination effect with MSC778: limited to additivity
